Assay results from publication PMC6393897, “An LC-MS/MS Method for Simultaneous Determination of the Toxic and Active Components of Cortex Periplocae in Rat Plasma and Application to a Pharmacokinetic Study” (International Journal of Analytical Chemistry, 2019).
Read-outs that look alike come from different tables or passages of the source. Blank lines part the entries; values can stand above or below the compound they belong to.

What was measured:
[1] = Stability of stock and working solutions stored 2 weeks at 4°C; format: physicochemical
Method: The QC samples (n = 6) at three concentrations (low, medium, and high) were also used to assess the stabilities of all analytes. […] For the freeze/thaw cycle stability, the QC samples stored at -80°C were subjected to three freeze to thaw (at room temperature) cycles. […] The mixed analytes solution (100 ng/mL), which was obtained by diluting the stock solution stored for two weeks at 4°C, was used to evaluate the stability of stock solution. The stability of analytes working solution was also assessed by storing solutions 2 weeks at 4°C. The stabilities of stock and working solutions of ISs were determined by the same procedure as that for the analytes.

[2] = Stability of analytes in rat plasma QC samples (autosampler, room temperature, freeze/thaw, -80°C); format: in vitro ADME; details: for Freeze thaw cycles stability, Accuracy: three freeze (-80°C)/thaw cycles
Method: The QC samples (n = 6) at three concentrations (low, medium, and high) were also used to assess the stabilities of all analytes. The QC samples under autosampler condition for 24 h were determined to evaluate the autosampler 24 h stability. For the freeze/thaw cycle stability, the QC samples stored at -80°C were subjected to three freeze to thaw (at room temperature) cycles. QC samples stored at room temperature for 24 h and -80°C for 1 month were used to evaluate the short-term stability and the long-term stability. The mixed analytes solution (100 ng/mL), which was obtained by diluting the stock solution stored for two weeks at 4°C, was used to evaluate the stability of stock solution. The stability of analytes working solution was also assessed by storing solutions 2 weeks at 4°C. The stabilities of stock and working solutions of ISs were determined by the same procedure as that for the analytes.

[3] = Pharmacokinetic study in rats after oral administration of cortex periplocae extract (plasma LC-MS/MS); format: in vivo, rat; details: oral cortex periplocae extract 18.9 g/kg; for AUC: 0-48 h, read-out: AUC(0-tn); for MRT: read-out: MRT(0-tn)
Method: The pharmacokinetic study was conducted in accordance with the Guidelines for the Care and Use of Laboratory Animals and approved by the Animal Ethics Committee of Tianjin University of Traditional Chinese Medicine. […] Appropriate amount of cortex periplocae extract was suspended in 0.5% carboxymethyl cellulose sodium salt aqueous solution (CMC-Na) and the volume of oral administration was 1 mL/100g. […] The rats were anesthetized with ethyl ether before each withdrawal. […] For this repeat bleeds at short intervals, fluid replacement (appropriate volume of physiological saline) was required. The blood samples were immediately centrifuged 10 min at 7000 rpm. The obtained plasma was transferred into another centrifuge tube and stored at -80°C for analysis.
For the maximum drug concentration in plasma (Cmax) and the time to reach maximum drug concentration (Tmax), the values could be directly obtained. The other key parameters such as the area under the plasma concentration–time curve (AUC), elimination half-life (t1/2), and mean residence time (MRT) were calculated with DAS (Drug and Statistics 1.0, Medical College of Wannan, China) using non-compartmental model.

[4] = n = 6, high level (1200 ng/mL isovanillin, periplocin; 240 ng/mL others)
[5] = male Sprague-Dawley rats, plasma, n = 6, mean ± SD
[6] = rat, in vivo, male Sprague-Dawley rats, plasma, n = 6, mean ± SD
[7] = rat, male Sprague-Dawley rats, plasma, n = 6, mean ± SD
[8] = n = 6, low level (7.2 ng/mL isovanillin, periplocin; 1.44 ng/mL others)
[9] = n = 6, medium level (120 ng/mL isovanillin, periplocin; 24 ng/mL others)
[10] = male, Sprague-Dawley, rat, in vivo, po, 18.9 g/kg, male Sprague-Dawley rats, plasma, n = 6, mean ± SD
[11] = rat, in vivo, male Sprague-Dawley rats, plasma, n = 6, mean ± SD, read-out: Cmax
[12] = 2 weeks at 4°C, high level (1200 ng/mL isovanillin, periplocin; 240 ng/mL scopoletin, periplogenin, periplocymarin)
[13] = 2 weeks at 4°C, low level (7.2 ng/mL isovanillin, periplocin; 1.44 ng/mL scopoletin, periplogenin, periplocymarin)
[14] = 2 weeks at 4°C, medium level (120 ng/mL isovanillin, periplocin; 24 ng/mL scopoletin, periplogenin, periplocymarin)

Working solution stability of ISs, accuracy ([1]; IS working solutions, 2 weeks at 4°C): 101%
SMILES: O=Cc1ccc(O)c(O)c1 [protocatechuic aldehyde, reference compound]

Working solution stability of ISs, accuracy ([1]; 2 weeks): 109%
SMILES: CC(=O)CC(c1ccccc1)c1c(O)c2ccccc2oc1=O (stereo not shown) [warfarin, reference compound]

SMILES: COc1cc2ccc(=O)oc2cc1O [scopoletin]
Room temperature for 24 h stability, Accuracy [2, 4]: 103%
Cmax [3, 5]: 0.1778 ± 0.13385 µg/mL
Cmax ([3]; male, Sprague-Dawley, rat, plasma, po, 18.9 g/kg, male Sprague-Dawley rats, plasma, n = 6, mean ± SD, read-out: Cmax): 0.178 ± 0.134 µg/mL
AUC [3, 6]: 0.103 ± 0.0764 µg·h/mL
AUC(0-inf) [3, 7]: 0.206 ± 0.153 µg·h/mL
Tmax [3, 7]: 0.1 ± 0.03 h
half-life [3, 7]: 0.19 ± 0.08 h
MRT [3, 7]: 11.8 ± 6.6 h

SMILES: CO[C@H]1C[C@H](O[C@H]2CC[C@]3(C)[C@H]4CC[C@]5(C)[C@@H](C6=CC(=O)OC6)CC[C@]5(O)[C@@H]4CC[C@]3(O)C2)O[C@H](C)[C@H]1O [periplocymarin]
-80°C for 1 month stability, Accuracy [2, 4]: 102%
Autosampler for 24 hours stability, Accuracy [2, 4]: 102%
Room temperature for 24 h stability, Accuracy [2, 4]: 98.5%
-80°C for 1 month stability, Accuracy [2, 8]: 106%
Autosampler for 24 hours stability, Accuracy [2, 8]: 101%
Room temperature for 24 h stability, Accuracy [2, 8]: 107%
-80°C for 1 month stability, Accuracy [2, 9]: 102%
Autosampler for 24 hours stability, Accuracy [2, 9]: 108%
Room temperature for 24 h stability, Accuracy [2, 9]: 102%
Freeze thaw cycles stability, Accuracy [2, 4]: 103%
Freeze thaw cycles stability, Accuracy [2, 8]: 113%
Freeze thaw cycles stability, Accuracy [2, 9]: 113%
half-life [3, 10]: 30.2 ± 11.8 h
Cmax ratio periplocymarin versus periplogenin ([3]; rat plasma): 9 times
AUC [3, 6]: 1.69 ± 1.17 µg·h/mL
AUC(0-inf) [3, 6]: 2.26 ± 1.28 µg·h/mL
Tmax [3, 6]: 5.49 ± 4.34 h
Cmax [3, 11]: 0.126 ± 0.0964 µg/mL
MRT [3, 6]: 17.1 ± 2.48 h
Working solution stability, Accuracy [1, 12]: 84.2%
Working solution stability, Accuracy [1, 13]: 110%
Working solution stability, Accuracy [1, 14]: 95.1%

SMILES: COC1CC(OC2CCC3(C)C4CCC5(C)C(C6=CC(=O)OC6)CCC5(O)C4CCC3(O)C2)OC(C)C1OC1OC(CO)C(O)C(O)C1O (stereo not shown) [periplocin]
-80°C for 1 month stability, Accuracy [2, 4]: 92.9%
Autosampler for 24 hours stability, Accuracy [2, 4]: 113%
Room temperature for 24 h stability, Accuracy [2, 4]: 96.4%
-80°C for 1 month stability, Accuracy [2, 8]: 115%
Autosampler for 24 hours stability, Accuracy [2, 8]: 113%
Room temperature for 24 h stability, Accuracy [2, 8]: 111%
-80°C for 1 month stability, Accuracy [2, 9]: 115%
Autosampler for 24 hours stability, Accuracy [2, 9]: 109%
Room temperature for 24 h stability, Accuracy [2, 9]: 116%
Freeze thaw cycles stability, Accuracy [2, 4]: 113%
Freeze thaw cycles stability, Accuracy [2, 8]: 93.7%
Freeze thaw cycles stability, Accuracy [2, 9]: 114%
t1/2 [3, 5]: 1.08 ± 0.98 h
half-life [3, 10]: 1.21 ± 1.11 h
AUC [3, 6]: 0.083 ± 0.0586 µg·h/mL
AUC(0-inf) [3, 6]: 0.105 ± 0.0709 µg·h/mL
Tmax [3, 6]: 0.31 ± 0.16 h
Cmax [3, 11]: 0.0914 ± 0.053 µg/mL
MRT [3, 6]: 1.21 ± 1.11 h
Working solution stability, Accuracy [1, 12]: 94.4%
Working solution stability, Accuracy [1, 13]: 103%
Working solution stability, Accuracy [1, 14]: 98.9%

SMILES: C[C@]12CC[C@H](O)C[C@@]1(O)CC[C@@H]1[C@@H]2CC[C@]2(C)[C@@H](C3=CC(=O)OC3)CC[C@]12O [periplogenin]
-80°C for 1 month stability, Accuracy [2, 4]: 98.7%
Autosampler for 24 hours stability, Accuracy [2, 4]: 104%
Room temperature for 24 h stability, Accuracy [2, 4]: 101%
-80°C for 1 month stability, Accuracy [2, 8]: 109%
Autosampler for 24 hours stability, Accuracy [2, 8]: 108%
Room temperature for 24 h stability, Accuracy [2, 8]: 92.6%
-80°C for 1 month stability, Accuracy [2, 9]: 108%
Autosampler for 24 hours stability, Accuracy [2, 9]: 110%
Room temperature for 24 h stability, Accuracy [2, 9]: 115%
Freeze thaw cycles stability, Accuracy [2, 4]: 92.8%
Freeze thaw cycles stability, Accuracy [2, 8]: 116%
Freeze thaw cycles stability, Accuracy [2, 9]: 112%
Working solution stability, Accuracy [1, 12]: 81.5%
Working solution stability, Accuracy [1, 13]: 111%
Working solution stability, Accuracy [1, 14]: 99.4%

SMILES: COc1ccc(C=O)cc1O [isovanillin]
-80°C for 1 month stability, Accuracy [2, 4]: 99.4%
Autosampler for 24 hours stability, Accuracy [2, 4]: 114%
Room temperature for 24 h stability, Accuracy [2, 4]: 103%
-80°C for 1 month stability, Accuracy [2, 8]: 109%
Autosampler for 24 hours stability, Accuracy [2, 8]: 100%
Room temperature for 24 h stability, Accuracy [2, 8]: 107%
-80°C for 1 month stability, Accuracy [2, 9]: 100%
Autosampler for 24 hours stability, Accuracy [2, 9]: 112%
Room temperature for 24 h stability, Accuracy [2, 9]: 106%
Freeze thaw cycles stability, Accuracy [2, 4]: 107%
Freeze thaw cycles stability, Accuracy [2, 8]: 101%
Freeze thaw cycles stability, Accuracy [2, 9]: 98.6%
Detection in rat plasma after oral administration ([3]; LLOQ 2.4 ng/mL): not detected
Working solution stability, Accuracy [1, 12]: 85.0%
Working solution stability, Accuracy [1, 13]: 104%
Working solution stability, Accuracy [1, 14]: 96.1%
